Where two headings read alike, the source gives them in different places.
Legend:
HIV-1IIIB = assay: Cellular anti-HIV assay in fresh human PBMC cultures (reverse transcriptase activity and/or p24 readout); assay type: cell-based
Method: The four modified peptides FB006M, FB007M, FB010M, and FB010KM were conjugated to human serum albumin (HSA) by mixing prior to the antiviral test. The results appear in Table 8 below, where IC50 value is the 50% viral inhibition drug concentration, and TC50 value is the 50% cytotoxicity drug concentration.
Pretitered aliquots of HIV-1IIIB was removed from the freezer (−80° C.) and thawed rapidly to room temperature in a biological safety cabinet immediately before use.
Fresh human PBMCs were isolated from screened donors, seronegative for HIV and HBV (Interstate Blood Bank, Inc.; Memphis, Tenn.). Cells were pelleted/washed 2-3 times by low speed centrifugation and resuspension in PBS to remove contaminating platelets. The Leukophoresed blood was then diluted 1:1 with Dulbecco's phosphate buffered saline (PBS) and layered over 14 mL of Lymphocyte Separation Medium in a 50 mL centrifuge tube and then centrifuged for 30 minutes at 600×g. Banded PBMCs were gently aspirated from the resulting interface and subsequently washed 2× with PBS by low speed centrifugation. After the final wash, cells were enumerated by trypan blue exclusion and re-suspended at 1×10^7 cells/mL in RPMI 1640 supplemented with 15% Fetal Bovine Serum (FBS), 2 mM L-glutamine, 4 μg/mL Phytohemagglutinin (PHA-P, Sigma). The cells were allowed to incubate for 48-72 hours at 37° C. After incubation, PBMCs were centrifuged and resuspended in RPMI 1640 with 15% FBS, 2 mM L-glutamine, 100 U/mL penicillin, 100 μg/mL streptomycin, 10 μg/mL gentamycin, and 20 U/mL recombinant human IL-2 (R&D Systems, Inc). […]
For the standard PBMC assay, PHA-P stimulated cells from at least two normal donors were pooled, diluted in fresh medium to a final concentration of 1×10^6 cells/mL, and plated in the interior wells of a 96 well round bottom microplate at 50 μL/well (5×10^4 cells/well). […] Following removal of supernatant samples, compound cytotoxicity was measured by addition of MTS to the plates for determination of cell viability. […]

[1] = Cytotoxicity in PBMCs by MTS (secondary cytotoxicity assay, high-test concentration 25 μM); assay type: cell-based; settings: human PBMCs, MTS cell viability; modified peptides conjugated with HSA; FB005, FB006 unmodified; read-out: TC50 (50% cytotoxicity drug concentration)
Method: For the standard PBMC assay, PHA-P stimulated cells from at least two normal donors were pooled, diluted in fresh medium to a final concentration of 1×10^6 cells/mL, and plated in the interior wells of a 96 well round bottom microplate at 50 μL/well (5×10^4 cells/well). Each plate contains virus/cell control wells (cells plus virus), experimental wells (drug plus cells plus virus) and compound control wells ([…], necessary for MTS monitoring of cytotoxicity). Since HIV-1 is not cytopathic to PBMCs, this allows the use of the same assay plate for both antiviral activity and cytotoxicity measurements. Test drug dilutions were prepared at a 2× concentration in microtiter tubes and 100 μL of each concentration was placed in appropriate wells using the standard format. 50 μL of a predetermined dilution of virus stock was placed in each test well (final MOI≈0.1). The PBMC cultures were maintained for seven days following infection at 37° C., 5% CO2, after which cell-free supernatant samples were collected for analysis of reverse transcriptase activity and/or HIV p24 content. Following removal of supernatant samples, compound cytotoxicity was measured by addition of MTS to the plates for determination of cell viability. Wells were also examined microscopically and any abnormalities noted. […]

[2] = HIV-1IIIB in fresh human PBMCs, seven days, FB006M, FB007M, FB010M, FB010KM conjugated with HSA prior to test, FB005, FB006 unmodified peptide, read-out: IC50 (50% viral inhibition drug concentration)

With “Ac-SLEQIWNNMTWEEWDREINNYTELIHELIEESQNQQEKNEQELL-NH2 [FB005]” the IC50 (HIV-1IIIB; [2]) was 0.93 nM and the CC50 at 7 days [1] was 14300 nM.

For “Ac-WEEWDREINNYTKLIHELIEESQNQQEKNEQELL-NH2 [FB006]”, the IC50 (HIV-1IIIB; FB006M and FB007M linked to serum albumin, read-out: IC50 (drug concentration for achieving 50% viral inhibition)) was 1.4 nM, the IC50 (HIV-1IIIB; [2]) was 1.41 nM and the CC50 at 7 days [1] was 15900 nM.

From patent US8470527B2, “Method of inhibiting HIV-1 replication by administering modified GP41 C34 peptide derivatives with enhanced pharmacological properties” (Frontier Biotechnologies, Co., Ltd., priority 2002, dated 2013)
